Columns and labels:
GATA-3 [1] = test: Immunoblot, GATA-3 protein in 3T3-L1 cells; format: cell-based, mouse; details: DM + 1, 2, 4, 8 μM, 8 days, p<0.05
Description: Immunoblot Analysis: GATA-2 and GATA-3 protein expression were assessed by Western blot. […] The cells were washed twice with PBS, lysed in a lysis buffer (HEPES-Tx-PI buffer: 10 mM HEPES, 5 mM EDTA, 350 mM Sucrose, 1 ug/ml leupeptin, 1 ug/ml pepstatin, 1% Triton-X, 1 mM PMSF, diluted in water), processed with a 25G needle and centrifuged at 10,000 rpm for 5 min. Protein concentration was determined using the […] according to the Pierce Protein Assay Protocol. Total protein (50 μg) was used for GATA-2 and GATA-3 analysis and was separated by electrophoresis using BioRad Electrophoretic System (60 V for 1 hour followed by 90 V for 5 hours). The protein was then transferred to nitrocellulose membranes at 35 V overnight. The membrane was blocked for 1 hour at room temperature in 5% nonfat milk in Tris-buffered saline (TBS), then washed with Tween-20-TBS (TTBS, 0.1% Tween-20) three times (15 min, 5 min, 5 min), followed by incubation with primary antibodies of GATA-2 (dilution 1:500), GATA-3 (dilution 1:500), β-Actin (dilution 1:1000) at room temperature for 2 hours. The membrane was rinsed three times (15 min, 5 min, 5 min), then incubated at room temperature for 1 hour with Horseradish peroxidase-conjugated second antibody (1:10,000). The membrane was then incubated in ECL reagent for 1 minute. Protein was visualized using UVP image analysis system.

SREBP-1 = test: Real-time RT-PCR, SREBP-1 mRNA in 3T3-L1; format: cell-based, mouse; details: 8 days
Text: Realtime RT-PCR: Real-time reverse transcriptase polymerase chain reaction (RT-PCR) analysis was used to measure mRNA expression of genes SREBP-1, PPARγ, C/EBPα, low density lipoprotein receptor (LDLR), Adiponectin, and fatty acid synthase (FAS) under the control of β-actin. Briefly, total RNA was isolated from 3T3-L1 cells following treatment for 8 days with Trizol reagent (Invitrogen, Carlsbad, Calif., USA) according to the manufacturer's instruction. RNA was quantified using absorption of light at 260 nm, and sample purity was checked by OD 260 nm/280 nm. 0.8 μg of total RNA from each sample was used for reverse transcription reaction using the TaqMan Reverse Transcription Reagents (Applied Biosystems, Foster City, Calif., USA) according to the manufacturers' instructions. PCR was done using the SYBR green Master Mix (Applied Biosystems, Foster City, Calif., USA) according to the manufacturers' instructions. The temperature cycling conditions of amplification were as follows: an initial step of denaturation at 95° C. for 10 min, 40 cycles of denaturation at 95° C. for 30 s, annealing at 55° C. for 30 s, and elongation at 72° C. for 30 s. Realtime RT-PCR was performed using Mx3000P Realtime Thermocyclers (Statagene, La Jolla, Calif., USA). The relative mRNA levels of these genes were calculated by 2-delta delta CT method and normalized with control groups.

GATA-3 [2] = test: Real-Time RT-PCR, GATA-3 mRNA in epididymal fat of FD mice; format: in vivo, mouse
Description: RNA and protein purification and quantification from epididymal fat tissues: RNA and protein was isolated from 60 mg of epididymal fat tissues with Trizol (Invitrogen, Carlsbad, Calif., USA) following the protocol recommended by the manufacturers. RNA was dissolved in pure water and quantified at 260/280 nm, and sample integrity was checked by 1.5% agarose gel electrophoresis. Protein concentration was determined using the Micro BCA Protein Assay Kit (Fisher Scientific, Pittsburgh, Pa., USA) according to the manufacturer's instructions.
Quantitative Real-Time RT-PCR: Real-Time reverse transcriptase polymerase chain reaction (RT-PCR) analysis was used to measure mRNA expression of genes PPARγ, C/EBPα, GATA-2 and GATA-3 in the control of β-actin. Total RNA (0.8 μg) from each sample was used for a reverse transcription reaction using the TaqMan Reverse Transcription Reagents (Applied Biosystems, Foster City, Calif., USA) following the manufacturer's instructions. PCR was done using the SYBR green Master Mix (Applied Biosystems, Foster City, Calif., USA) following the manufacturer's instructions. The cycling conditions of amplification were as follows: an initial step of denaturation at 95° C. for 10 min, 40 cycles of denaturation at 95° C. for 30 s, annealing at 55° C. for 30 s, and elongation at 72° C. for 30 s. Real-Time PCR was performed using Mx3000P Real-Time Thermocyclers (Stratagene, La Jolla, Calif., USA). The relative mRNA levels of these genes were calculated by 2-delta delta CT method and normalized with control-treated groups.

[3] = Serum total cholesterol assay in mice; format: in vivo, mouse
Description: Six mice per subgroup were obtained finally.
Serum glucose, triglyceride, cholesterol assay: Blood samples from each mouse were collected and serum was separated by centrifugation for the measurement of levels of glucose, triglyceride and total cholesterol. Serum glucose concentrations were analyzed using Glucose (HK) Assay Kit (Sigma-aldrich, Saint Louis, Mo., USA). Serum triglyceride concentrations were analyzed using Serum Triglyceride Determination Kit (Sigma-aldrich, Saint Louis, Mo., USA). Serum cholesterol concentrations were analyzed using Amplex® Red Cholesterol Assay Kit (Invitrogen, Carlsbad, Calif., USA). All experimental assays were done according to the manufacturer's instructions.

Structure (SMILES): COc1ccc2cc3[n+](cc2c1OC)CCc1cc2c(cc1-3)OCO2.[Cl-] [berberine, Berberine (Chloride Form)]
- GATA-3 protein expression (GATA-3 [1]): increase
- decrease of SREBP-1 mRNA expression vs clozapine treated group (SREBP-1; 8 μM berberine + 15 μM clozapine): 68.9%
- decrease of SREBP-1 mRNA expression vs risperidone treated group (SREBP-1; 8 μM berberine + 50 μM risperidone): 80.9%
- GATA-3 mRNA expression up-regulated by (GATA-3 [2]; 0.75 mg/kg/day): 3.2 fold
- GATA-3 mRNA expression up-regulated by (GATA-3 [2]; 1.5 mg/kg/day): 4.3 fold
- GATA-3 mRNA expression up-regulated by (GATA-3 [2]; 3 mg/kg/day): 4.8 fold
- reduction of serum total cholesterol level ([3]; FD mice, 0.75 mg/kg/day): 18.7%
- serum total cholesterol level ([3]; FD mice, 0.75 mg/kg/day, 36 days (control 152.4±15.2)): 123.9 ± 16.5 mg/dL
- reduction of serum total cholesterol level ([3]; FD mice, 1.5 mg/kg/day): 22.2%
- serum total cholesterol level ([3]; FD mice, 1.5 mg/kg/day, 36 days): 118.5 ± 14.7 mg/dL
- reduction of serum total cholesterol level ([3]; FD mice, 3 mg/kg/day): 28%
- serum total cholesterol level ([3]; FD mice, 3 mg/kg/day, 36 days): 109.8 ± 22.7 mg/dL
- serum total cholesterol level ([3]; ND mice, 3 mg/kg/day (control 96.5±16.5)): 97.4 ± 18.3 mg/dL
